Assay results from patent US9828351B2, “Enzyme interacting agents” (MONASH UNIVERSITY, priority 2014, dated 2017).

Columns and labels:
[1] = test system: MCF7 breast cancer cells; assay: Anticancer activity in MCF7 cell lines, MTS assay; format: cell-based; details: Homo sapiens, concentration required to inhibit cell proliferation by 50%, 72 hrs, read-out: MCF-7 IC50
Description: Measurement of Anticancer Activity in MCF7 Cell Lines
MCF7 breast cancer cells were treated with the test compounds and incubated at 37° C., 5% CO2 in air for 72 hrs. The MTS assay was conducted with addition of prepared MTS solution followed by 2 hr incubation, an OD reading and the raw data recorded. The data was managed in tabular form, values adjusted for vehicle control, and the adjusted values graphed as a sigmoidal curve and the EC50 value calculated.

[2] = molecular target: T1, recombinant his tagged human SphK1 (Homo sapiens, UniProt Q9NYA1); assay: SphK1 activity assay (32P-labelled S1P production); format: biochemical; details: 10 μM compound; % of activity compared to control (DMSO vehicle only)
T1 construct: His tag; made in house; host or cells: insect cells (baculovirus system)
T1 sequence (Q9NYA1 whole entry): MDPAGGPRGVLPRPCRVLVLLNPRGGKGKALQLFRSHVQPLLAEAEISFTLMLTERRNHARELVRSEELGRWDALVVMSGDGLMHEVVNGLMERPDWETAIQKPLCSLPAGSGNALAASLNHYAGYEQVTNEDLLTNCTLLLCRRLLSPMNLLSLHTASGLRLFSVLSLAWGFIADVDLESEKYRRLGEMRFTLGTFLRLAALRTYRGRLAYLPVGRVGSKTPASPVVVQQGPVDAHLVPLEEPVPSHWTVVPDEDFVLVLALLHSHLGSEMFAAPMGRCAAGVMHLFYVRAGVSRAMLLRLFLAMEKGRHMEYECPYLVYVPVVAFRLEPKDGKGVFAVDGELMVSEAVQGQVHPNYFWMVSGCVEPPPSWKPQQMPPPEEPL
Description: The SphK assays employed, measure SphK activity through the production of ^32P-labelled S1P following the addition of exogenous Sph and [γ^32P] ATP.
Activities of SphK1 and SphK2 were determined using identical assay conditions with the exception that SphK1 assays used 3 ng/assay recombinant his tagged human SphK1 (made in the lab in a baculovirus system using insect cells), while SphK2 assays used 30 ng/assay recombinant human SphK2 (purchased by Johnson and Johnson).
Compounds were dissolved in DMSO at 10 mM, the mixture was vortexed (and sonicated if necessary). Stock solutions were kept at 4° C. until used.
Aliquots were made containing 100 μM drug compound. These aliquots were then diluted in assay buffer: 100 mM tris/HCl pH 7.4, 100 mM NaCl, 1 mM sodium orthovanadate, 10 mM NaF to make up a 10 μM solution.
Recombinant enzyme was diluted in assay buffer (above) to make up a final concentration of 0.03 ng/μL (SphK1) or 0.33 ng/μL (SphK2).
40 μL recombinant enzyme was added to an Eppendorf® Safe-Lock® microcentrifuge tube. This was followed by the addition of drug compound from prepared aliquots, before adding ATP, [γ^32P]ATP and Sph. Note: ATP stock is made up in 1M Tris pH 7.4 and 200 mM MgCl2. This allows ATP to complex with Mg and be available as a substrate.
The rest of the reaction mixture was then added to the enzyme sample (Table 1). All reactions were performed as triplicates.
Reaction mixture was prepared with sufficient volume to assay all of the required samples. To do this, each of the volumes shown was multiplied by n+1, where n is the number of samples to be assayed. Assay buffer used is made up of 100 mM tris/HCl pH 7.4, 100 mM NaCl, 1 mM sodium orthovanadate and 10 mM NaF.
The mixture was then incubated at 37° C. for 20 min (SphK1)/45 min (SphK2).
To the 100 μL assay mixture, add 270 μl of chloroform/methanol/conc. HCl (100:200:1).
20 μL of 5 M KCl was then added to the assay mixture.
70 μL of chloroform was added to create phase separation. The solution was vortexed to mix well.
The solution was then centrifuged for 5 min at 13,000×g to fully separate the phases.
The upper aqueous/methanol phase was separated by aspiration.
50 μL of the remaining lower chloroform phase […] was applied onto the TLC plate by repeatedly spotting a few microliters of liquid (<5 mm diameter circle) between each sample spot with the pipette tip. The liquid was then allowed to absorb into the plate before drying with a stream of air.
The TLC plate was developed in a glass TLC developing tank with 1-butanol/ethanol/glacial acetic acid/H2O (8:2:1:2) until the mobile phase is within 1 cm of the top of the TLC plate.
The TLC plate was then exposed to a storage phosphor screen overnight. Storage phosphor screens work by capturing images produced by ionising radiation (e.g. ^32P). The phosphorimager stimulates the screen which uses lasers to convert the latent signal to light. Light is proportional to the amount of radioactivity in the sample. The image is then quantified using standard quantification software (ImageQuant™). Whatman paper with the assay mixture dilutions, was included to assist quantification of the phosphor signal.
Once the storage phosphor screen was read using the phosphorimager, S1P spots, which have an Rf of 0.7 with the mobile phase employed, were quantified.
The S1P spot intensity can be converted to the amount of phosphate transferred/min/mg protein.

[3] = test system: PC3 prostate cancer cell lines; assay: Anticancer activity in PC3 cell line, CellTitre AQueous One cell viability assay; format: cell-based; details: Homo sapiens, PC-3; concentration required to inhibit cell proliferation by 50%; 72 hours
Description: Measurement of Anticancer Activity in PC3 Cell Line Assays
PC3 prostate cancer cell lines were cultured in DMEM (containing 10% fetal calf serum and penicillin-streptomycin).
Before treatment with drug compounds, cells were plated at 2,500 cells/well in 96 well plates and incubated at 37° C. with 5% CO2 in a humidified incubator for 24 hours prior. Cells were only plated in columns 3-10 and rows C—F to ensure uniform humidity and warmth across all wells. The remaining wells were filled with 100 μL of phosphate buffered saline.
Drug stock solutions (50 or 10 mM) were diluted×1000 in media to a final concentration of either 50 μM or 10 μM with a DMSO vehicle concentration of 0.1%.
Cell culture supernatants were aspirated and replaced with drug containing media. Drug treatments were performed in duplicate wells, while potential plate layout-specific variation in cell growth was accounted for by addition of a vehicle control (0.1% DMSO).
Cells were then incubated with drug compounds at 37° C. with 5% CO2 in a humidified incubator for 72 hours prior to assay.
Media was diluted with CellTitre AQueous One Solution (Promega, Australia; Cat # G3580) according to manufacturer's instructions to produce a final concentration of 317 μg/mL.
Cell culture supernatants were then aspirated from wells and replaced with 100 μL of CellTitre solution. Triplicate cell-free control wells containing only CellTitre solution were also included in each assay.
Cells were then incubated at 37° C. with 5% CO2 in a humidified incubator for 1 hour at which time absorbance was read at 490 nm with an EnVision microplate reader (Perkin Elmer, Australia).
When analysing data, background absorbance (taken from cell-free control wells) was subtracted from each reading. […] For each drug concentration the mean (±SEM) is calculated and graphed using GraphPad Prism (version 5). A sigmoidal curved is fitted to the data and used to calculate the IC50 of each compound.

[4] = molecular target: T2, SphK1a in Flpln-SphK1a cells (Flp-In T-Rex HEK293) (Homo sapiens, UniProt Q9NYA1); assay: SphK1 proteasomal degradation study (immunoblotting); format: cell-based; details: 10 μM test compound, 24 h
T2 construct: expressed in transfected cells; host or cells: Flp-In T-Rex HEK293 cells, doxycycline-induced
T2 sequence (Q9NYA1 whole entry): as above
Description: These studies were performed as previously described for the drug SKI-II (C. Loveridge et al. J. Biol. Chem. 2010, 285, 38891). […] After 24 h cells were treated with 10 μm test compound, 10 μm MG132, or both. DMSO was used as the vehicle control. After a further 24 h, cells were harvested, lysed, and subjected to SDS-PAGE and immunoblotting with anti-FLAG (Sigma), anti-ERK1/2 (Promega), or anti-a-tubulin (Abcam) antibodies.

IC50 [1]: 10 to 100 µM
activity at 10 µM [2]: 50 to 80%
IC50 [3]: 1 to 10 µM
% SphK1a degradation at 10 μM [4]: 100%
Structure (SMILES): Oc1ccc(Nc2nc(-c3ccc(Cl)cc3)cs2)cc1 [SKI-II, reference compound]
